From the supplement of paper PMC10307832 come the findings set out here.

Common to all, as to assay: relative viability (nuclei count vs DMSO), 5 days (fraction); higher = more cells survive
Compound in the test “CUDC-101 + Vorinostat”: C#Cc1cccc(Nc2ncnc3cc(OC)c(OCCCCCCC(=O)NO)cc23)c1 [CUDC-101] + O=C(CCCCCCC(=O)Nc1ccccc1)NO [Vorinostat] (partner 1 µM)
In short, it runs like this:
(§1)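 Nuclei were stained with Hoechst during a one-step fixation (final 0.05% Triton X-100, 1% formaldehyde, 1 ug/ml Hoechst) carried out 5 days after dosing, then counted on 4× images. The cells, lung cancer lines in 1536-well plates, had been dosed by pin tool the day after seeding with one drug alone or a fixed anchor-drug dose plus five library-drug doses (not always all listed) in √10 steps. Relative viability is the nuclei count in treated wells divided by that in vehicle wells, and each value is the median of duplicate plates.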

Compound in the test “NVP-TAE684 + Linsitinib”: COc1cc(N2CCC(N3CCN(C)CC3)CC2)ccc1Nc1ncc(Cl)c(Nc2ccccc2S(=O)(=O)C(C)C)n1 [NVP-TAE684] + C[C@]1(O)C[C@@H](c2nc(-c3ccc4ccc(-c5ccccc5)nc4c3)c3c(N)nccn32)C1 [Linsitinib] (partner 1 µM)
In short, it runs like this: as §1

Compound in the test “Vandetanib + Tozasertib”: COc1cc2/c(=N/c3ccc(Br)cc3F)nc[nH]c2cc1OCC1CCN(C)CC1 [Vandetanib] + Cc1cc(Nc2cc(N3CCN(C)CC3)nc(Sc3ccc(NC(=O)C4CC4)cc3)n2)n[nH]1 [Tozasertib] (partner 0.1 µM)
Summed up:
as §1

Compound in the test “CUDC-101 + Olaparib”: C#Cc1cccc(Nc2ncnc3cc(OC)c(OCCCCCCC(=O)NO)cc23)c1 [CUDC-101] + O=C(c1cc(Cc2n[nH]c(=O)c3ccccc23)ccc1F)N1CCN(C(=O)C2CC2)CC1 [Olaparib] (partner 8 µM)
In short, it runs like this:
as §1

In the case of NCI-H1975, the relative viability with CUDC-101 + Vorinostat (first compound 0.01 µM) is 0.687; with CUDC-101 + Vorinostat (first compound 0.03162 µM), 0.712; in the test with CUDC-101 + Vorinostat (first compound 0.1 µM), 0.781; with CUDC-101 + Vorinostat (first compound 0.3162 µM), 0.75; with CUDC-101 + Vorinostat (first compound 1 µM) it was 0.642; with NVP-TAE684 + Linsitinib (first compound 0.2 µM), 1.01. Further, the relative viability in the test with NVP-TAE684 + Linsitinib (first compound 0.6325 µM) was 0.97; with NVP-TAE684 + Linsitinib (first compound 2 µM) it was 0.269; with Vandetanib + Tozasertib (first compound 0.02 µM), 0.771; in the test with Vandetanib + Tozasertib (first compound 0.06325 µM), 0.714; with Vandetanib + Tozasertib (first compound 0.2 µM), 0.0829; with Vandetanib + Tozasertib (first compound 0.6325 µM), 0.685. Further, the relative viability with Vandetanib + Tozasertib (first compound 2 µM) came to 0.74; in the test with CUDC-101 + Olaparib (first compound 0.01 µM), 0.853; with CUDC-101 + Olaparib (first compound 0.03162 µM), 0.737; with CUDC-101 + Olaparib (first compound 0.1 µM), 0.818; with CUDC-101 + Olaparib (first compound 0.3162 µM), 0.859; with CUDC-101 + Olaparib (first compound 1 µM), 0.745.
Regarding NCI-H1993, the relative viability amounted to 0.748 with CUDC-101 + Vorinostat (first compound 0.01 µM); 1.01 in the test with CUDC-101 + Vorinostat (first compound 0.03162 µM); 0.688 with CUDC-101 + Vorinostat (first compound 0.1 µM); 0.666 with CUDC-101 + Vorinostat (first compound 0.3162 µM); 0.426 with CUDC-101 + Vorinostat (first compound 1 µM); 0.66 with NVP-TAE684 + Linsitinib (first compound 0.6325 µM). Moreover, the relative viability with NVP-TAE684 + Linsitinib (first compound 2 µM) came to 0.658; in the test with Vandetanib + Tozasertib (first compound 0.02 µM), 0.639; with Vandetanib + Tozasertib (first compound 0.06325 µM) it was 0.601; in the test with Vandetanib + Tozasertib (first compound 0.2 µM) it was 0.481; with Vandetanib + Tozasertib (first compound 0.6325 µM) it was 0.561; with Vandetanib + Tozasertib (first compound 2 µM), 0.521. Also, the relative viability in the test with CUDC-101 + Olaparib (first compound 0.01 µM) is 1.04; with CUDC-101 + Olaparib (first compound 0.03162 µM), 0.963; with CUDC-101 + Olaparib (first compound 0.1 µM) it was 1.02; with CUDC-101 + Olaparib (first compound 0.3162 µM) it was 1.1; with CUDC-101 + Olaparib (first compound 1 µM), 0.667.
Turning to NCI-H2009, the relative viability with CUDC-101 + Vorinostat (first compound 0.01 µM) is 0.766; with CUDC-101 + Vorinostat (first compound 0.03162 µM), 0.639; in the test with CUDC-101 + Vorinostat (first compound 0.1 µM) it was 0.764; in the test with CUDC-101 + Vorinostat (first compound 0.3162 µM) it was 0.705; with CUDC-101 + Vorinostat (first compound 1 µM), 0.506; with NVP-TAE684 + Linsitinib (first compound 0.2 µM) it was 1.08. Further, the relative viability was 1.21 with NVP-TAE684 + Linsitinib (first compound 0.6325 µM); 0.986 with NVP-TAE684 + Linsitinib (first compound 2 µM); 0.733 in the test with Vandetanib + Tozasertib (first compound 0.02 µM); 0.704 with Vandetanib + Tozasertib (first compound 0.06325 µM); 0.419 in the test with Vandetanib + Tozasertib (first compound 0.2 µM); 0.735 with Vandetanib + Tozasertib (first compound 0.6325 µM). The relative viability with Vandetanib + Tozasertib (first compound 2 µM) is 0.786; with CUDC-101 + Olaparib (first compound 0.01 µM), 0.698; with CUDC-101 + Olaparib (first compound 0.03162 µM), 0.694; with CUDC-101 + Olaparib (first compound 0.1 µM) it was 0.697; with CUDC-101 + Olaparib (first compound 0.3162 µM), 0.615; in the test with CUDC-101 + Olaparib (first compound 1 µM) it was 0.646.
On to NCI-H2023, for which the relative viability with CUDC-101 + Vorinostat (first compound 0.01 µM) is 0.781; with CUDC-101 + Vorinostat (first compound 0.03162 µM), 0.654; with CUDC-101 + Vorinostat (first compound 0.1 µM), 0.716; with CUDC-101 + Vorinostat (first compound 0.3162 µM), 0.703; with CUDC-101 + Vorinostat (first compound 1 µM), 0.435; in the test with NVP-TAE684 + Linsitinib (first compound 0.2 µM) it was 0.517. For the same cell line, the relative viability with NVP-TAE684 + Linsitinib (first compound 0.6325 µM) was determined as 0.669; with NVP-TAE684 + Linsitinib (first compound 2 µM), 0.265; in the test with Vandetanib + Tozasertib (first compound 0.02 µM) it was 0.436; with Vandetanib + Tozasertib (first compound 0.06325 µM), 0.31; with Vandetanib + Tozasertib (first compound 0.2 µM) it was 0.217; with Vandetanib + Tozasertib (first compound 0.6325 µM), 0.298. The relative viability in the test with Vandetanib + Tozasertib (first compound 2 µM) stood at 0.337; in the test with CUDC-101 + Olaparib (first compound 0.01 µM), 0.499; with CUDC-101 + Olaparib (first compound 0.03162 µM), 0.448; with CUDC-101 + Olaparib (first compound 0.1 µM), 0.453; with CUDC-101 + Olaparib (first compound 0.3162 µM) it was 0.486; in the test with CUDC-101 + Olaparib (first compound 1 µM), 0.387.
With NCI-H2085, the relative viability with CUDC-101 + Vorinostat (first compound 0.01 µM) is 0.772; with CUDC-101 + Vorinostat (first compound 0.03162 µM) it was 0.771; in the test with CUDC-101 + Vorinostat (first compound 0.1 µM), 0.814; with CUDC-101 + Vorinostat (first compound 0.3162 µM), 0.801; with CUDC-101 + Vorinostat (first compound 1 µM) it was 0.628; with NVP-TAE684 + Linsitinib (first compound 0.2 µM) it was 0.928. Besides, the relative viability with NVP-TAE684 + Linsitinib (first compound 0.6325 µM) came to 0.82; in the test with NVP-TAE684 + Linsitinib (first compound 2 µM) it was 0.7; with Vandetanib + Tozasertib (first compound 0.02 µM), 0.793; with Vandetanib + Tozasertib (first compound 0.06325 µM), 0.755; in the test with Vandetanib + Tozasertib (first compound 0.2 µM), 0.472; with Vandetanib + Tozasertib (first compound 0.6325 µM) it was 0.774. Also, the relative viability with Vandetanib + Tozasertib (first compound 2 µM) turned out to be 0.725; with CUDC-101 + Olaparib (first compound 0.01 µM) it was 0.766; with CUDC-101 + Olaparib (first compound 0.03162 µM), 0.806; with CUDC-101 + Olaparib (first compound 0.1 µM) it was 0.721; in the test with CUDC-101 + Olaparib (first compound 0.3162 µM), 0.813; in the test with CUDC-101 + Olaparib (first compound 1 µM), 0.676.
As to NCI-H2087, the relative viability turned out to be 0.928 with CUDC-101 + Vorinostat (first compound 0.01 µM); 0.886 with CUDC-101 + Vorinostat (first compound 0.03162 µM); 0.684 in the test with CUDC-101 + Vorinostat (first compound 0.1 µM); 0.528 with CUDC-101 + Vorinostat (first compound 0.3162 µM); 0.38 with CUDC-101 + Vorinostat (first compound 1 µM); 1.04 with NVP-TAE684 + Linsitinib (first compound 0.2 µM). For the same cell line, the relative viability with NVP-TAE684 + Linsitinib (first compound 0.6325 µM) turned out to be 1.04; with NVP-TAE684 + Linsitinib (first compound 2 µM), 0.982; with Vandetanib + Tozasertib (first compound 0.02 µM) it was 0.252; with Vandetanib + Tozasertib (first compound 0.06325 µM) it was 0.266; in the test with Vandetanib + Tozasertib (first compound 0.2 µM) it was 0.0945; in the test with Vandetanib + Tozasertib (first compound 0.6325 µM) it was 0.278. For the same cell line, the relative viability with Vandetanib + Tozasertib (first compound 2 µM) came to 0.262; with CUDC-101 + Olaparib (first compound 0.01 µM), 0.698; with CUDC-101 + Olaparib (first compound 0.03162 µM), 0.614; in the test with CUDC-101 + Olaparib (first compound 0.1 µM), 0.522; in the test with CUDC-101 + Olaparib (first compound 0.3162 µM), 0.578; with CUDC-101 + Olaparib (first compound 1 µM), 0.488.
